Measured values published in PMC7126984 (International Journal of Antimicrobial Agents, 2008).
Converted amounts (≈) assume the structure as drawn.

Legend:
[1] = system: gamma-activated sequence (GAS) promoter; assay: Dual-luciferase cis-reporter assay pGAS-Luc in HL-CZ cells; type: cell-based, human; details: 1 μg/mL, 4 h, normalised by Renilla luciferase, vs untreated cells
[2] = system: 2′,5′-oligoadenylate synthetase (OAS) mRNA; assay: Real-time RT-PCR of OAS mRNA in HL-CZ cells; type: cell-based, human; details: 1 μg/mL, normalised to GAPDH, vs untreated cells
IFNα expression = assay: ELISA for detection of IFNα expression in TE-671 cells; type: cell-based, human; details: 48 h incubation
enterovirus 71 (EV71) [3] = assay: Plaque reduction assay, EV71 in HL-CZ cells
[4] = MTT cytotoxicity test in TE-671 cells; details: human, TE-671 medulloblastoma cells
rhinovirus = details: cited from earlier work
[5] = system: Japanese encephalitis virus (JEV) strain T1P1; assay: Plaque reduction assay, JEV in TE-671 cells; details: for TI (ratio of CC50 to IC50): JEV, TE-671 cells; for IC50: Japanese encephalitis virus; for inhibition of JEV replication in cell culture assay: dose-dependent plaque reduction assay
[6] = system: human protein kinase R (PKR) mRNA; assay: Real-time RT-PCR of PKR mRNA in HL-CZ cells; type: cell-based; details: 1 μg/mL, normalised to GAPDH, vs untreated cells
[7] = system: interferon-stimulated response element (ISRE) promoter; assay: Dual-luciferase cis-reporter assay pISRE-Luc in HL-CZ cells; type: cell-based, human; details: 1 μg/mL, 4 h, normalised by Renilla luciferase, vs untreated cells
[8] = system: nitric oxide (NO) production; assay: NO production by DAF-2 DA fluorescence in HL-CZ cells; type: cell-based, human; details: compared with the control and shikonin
[9] = MTT cytotoxicity test in HL-CZ cells; details: human, HL-CZ promonocyte cells
enterovirus 71 (EV71) [10] = assay: Plaque reduction assay, EV71 in TE-671 cells; details: for IC50: Enterovirus A
[11] = system: Japanese encephalitis virus (JEV) strain T1P1; assay: Plaque reduction assay, JEV in HL-CZ cells; details: for TI (ratio of CC50 to IC50): JEV, HL-CZ cells; for IC50: Japanese encephalitis virus, 48 h
[12] = system: TE-671 medulloblastoma cells; assay: MTT cytotoxicity test in TE-671 cells; details: TE-671 cells, 48 h treatment, MTT assay
[13] = 1 μg/mL, TE-671 and HL-CZ cells, 12, 24 and 48 h

Structure (SMILES)	increase of promoter activity of pGAS-Luc [1]	increase of OAS mRNA [2]	level of IFNα expression, dose dependence (IFNα expression)	CC50 at 48 h [4]	TI (ratio of CC50 to IC50) [5]	IC50 ([5]; TE-671, 48 h)	inhibition of JEV replication in cell culture assay [5]	increase of PKR mRNA [6]	increase of promoter activity of pISRE-Luc [7]	NO production (DAF signal) [8]	CC50 at 48 h [9]	TI (ratio of CC50 to IC50) [11]	IC50 [11]	other results
O=C1c2cccc(O)c2C(=O)c2c(O)cc(CO)cc21 [Aloe-emodin, 1,8-dihydroxy-3-hydroxymethyl-anthraquinone]	~2.03 fold	8.6 fold	dose-dependent increase	2630 µg/mL (≈ 9740 µM)	1743	1.51 ± 0.05 µg/mL (≈ 5.59 µM)	dose-dependent inhibition	1294.4 fold	ca. 2.14 fold	greater DAF signal	2880 µg/mL (≈ 10700 µM)	5762	0.5 ± 0.02 µg/mL (≈ 1.85 µM)	increase in IFNα expression (IFNα expression): 2.5 fold; TI (ratio of CC50 to IC50) (enterovirus 71 (EV71) [3]; EV71, HL-CZ cells): 5540; IC50 (enterovirus 71 (EV71) [3]; Enterovirus A, EV71, 48 h): 0.52 ± 0.03 µg/mL (≈ 1.92 µM); antiviral effect on the replication of rhinovirus (rhinovirus): no antiviral effect; time-dependent inhibition of JEV replication [5, 13]: significantly inhibited; IC50 ([5]; TE-671, read-out: IC50 for JEV): 0.5 to 1.51 µg/mL (≈ 1.85 to 5.59 µM); therapeutic index (TI) for anti-JEV activity ([5]; over TE-671 and HL-CZ cells): > 1500; time-dependent inhibition of EV71 replication (enterovirus 71 (EV71) [10]; [13]): significantly inhibited; TI (ratio of CC50 to IC50) (enterovirus 71 (EV71) [10]; EV71, TE-671 cells): 18 800; IC50 (enterovirus 71 (EV71) [10]; EV71, TE-671, 48 h): 0.14 ± 0.04 µg/mL (≈ 0.518 µM); IC50 (enterovirus 71 (EV71) [10]; EV71, TE-671, read-out: IC50 for EV71): 0.14 to 0.52 µg/mL (≈ 0.518 to 1.92 µM); therapeutic index (TI) for anti-EV71 activity (enterovirus 71 (EV71) [10]; over TE-671 and HL-CZ cells): > 5000
COC(=O)C1=CCCN(C)C1 [Arecoline, arecoline]	1.8 fold		dose-dependent increase	> 3000 µg/mL	>92.3	32.5 ± 0.4 µg/mL (≈ 209 µM)	dose-dependent inhibition			greater DAF signal	> 3000 µg/mL	>285.7	10.5 ± 0.3 µg/mL (≈ 67.7 µM)	
O.Oc1cc(O)c2c(c1)O[C@H](c1ccc(O)c(O)c1)[C@@H](O)C2 [Catechin, catechin]														CC50 [12]: >3000 µg/mL
COc1ccc([C@@H]2CC(=O)c3c(O)cc(O)cc3O2)cc1O [Hesperetin, hesperetin]				574 µg/mL (≈ 1900 µM)	159	3.6 ± 0.5 µg/mL (≈ 11.9 µM)								
CC(C)=CC[C@@H](O)C1=CC(=O)c2c(O)ccc(O)c2C1=O [Shikonin, shikonin]		5 fold	dose-dependent increase	1750 µg/mL (≈ 6080 µM)	835.2	2.1 ± 0.5 µg/mL (≈ 7.28 µM)	dose-dependent inhibition	1087 fold	ca. 1.2 fold		> 3000 µg/mL	>2500	1.2 ± 0.2 µg/mL (≈ 4.16 µM)	
